Each compound was assayed on Bombyx mori (assay: Insecticidal activity against po dosed third-instar larvae of Bombyx mori assessed as gram of diet).
Type: functional
CC(=O)N1CC[C@@]23c4ccccc4N[C@@H]4N(C)c5cccc6c5[C@@]42CCN([C@@H]13)[C@@H]6[C@H]1OC1(C)C [COMMUNESIN A] was tested, and the LD50 was 150 mg/kg. C/C=C/C=C/C(=O)N1CC[C@@]23c4ccccc4N[C@@H]4N(C)c5cccc6c5[C@@]42CCN([C@@H]13)[C@@H]6[C@H]1OC1(C)C [COMMUNESIN B] was tested, and the LD50 was 5 mg/kg. Work on C/C=C/C=C/C(=O)N1CC[C@@]23c4ccccc4N[C@@H]4Nc5cccc6c5[C@@]42CCN([C@@H]13)[C@@H]6[C@H]1OC1(C)C [COMMUNESIN C] yielded an LD50 of 300 mg/kg. C/C=C/C=C/C(=O)N1CC[C@@]23c4ccccc4N[C@@H]4N(C=O)c5cccc6c5[C@@]42CCN([C@@H]13)[C@@H]6[C@H]1OC1(C)C [COMMUNESIN D] was tested, and the LD50 was 80 mg/kg. Compound CC(=O)N1CC[C@@]23c4ccccc4N[C@@H]4N(C)c5cccc6c5[C@@]42CCN([C@@H]6C=C(C)C)[C@@H]13 [COMMUNESIN E] has an LD50 of 80 mg/kg.

Source: ChEMBL document CHEMBL3045224, “New insecticidal compounds, communesins C, D and E, from Penicillium expansum link MK-57” (2004)
